Assay results: US8552064B2, “Suramin and derivatives thereof as topical microbicide and contraceptive” (Eastern Virginia Medical School, priority 2005, dated 2013)
≈ marks a conversion by molar mass, not a printed value. Like-named read-outs stand apart in the source and are kept apart here.

Columns and labels:
Type in all cases: cell-based
[1] = test system: HIV-1 Ba-L in monocyte-derived dendritic cells; experiment: Infection of T cells by HIV associated to dendritic cells (DC/T assay); conditions: for EC50: Human immunodeficiency virus 1, Dendritic cell
Protocol: Monocyte-derived dendritic cells (MO-DC), infected with the NSI/R5 strain Ba-L at 10-3 multiplicity of infection, were cultured alone or with autologous CD4(+) T cells at a ratio 1:1 or 1:10. A dilution series of suramin was added to the MO-DC, 1 hour prior to infection and remained present during infection. After infection, cells were extensively washed and compounds were added at the same concentrations as for the pre-incubation. Medium and compounds were refreshed twice a week. After 2 weeks, HIV Ag was measured in supernatants with ELISA and EC50 values (effective conc. 50%) were calculated using linear regression (Vanham G et al, AIDS 2000, 14: 2299-2311). The results of this assay are provided herein.

[2] = test system: human sperm binding to zona pellucida; experiment: Hemizona assay (HZA), human sperm-zona binding
Protocol: The hemizona assay, as described in Burkman L. J., et al., Fertil. Steril., 49: 688-697 (1988), was used to measure the ability of sperm to undergo capacitation and bind to the zona pellucida of an oocyte. Briefly, in this assay, motile normal sperm were separated in media with bovine serum albumin, which triggers capacitation. Human motile sperm were separated using a swim-up technique and incubated with 1 mM suramin or solvent-control medium for 15 minutes in 100 μL medium droplets covered with mineral oil, at 37° C., 5% CO2. Sperm were then incubated with dead oocytes which are surrounded by the zona pellucida, an acellular coating of oocytes. Bisected hemizonae corresponding to one oocyte were placed each in the test (suramin) and control (solvent) droplets and incubated for an additional 4 hours. Sperm-hemizonae complexes were washed extensively and capacitated spermatozoa bound to the outer surface of the zonae and were counted under an inverted microscope. The Hemizona Index (HZI) was calculated by dividing the number of suramin-treated sperm bound to one hemizona by the number of untreated (control) sperm bound to the other hemizona.

[3] = test system: human sperm, zona-free hamster eggs; experiment: Hamster-egg penetration test (HEPT)
Protocol: The hamster-egg penetration test (HEPT) was used to predict the fertilizing ability of human sperm by evaluating the sperm's ooctye-penetration capability as described in Yanagimachi R. et al., Biol. Reprod., 15: 471-6 (1976). The zona pellucida of hamster eggs was dissolved by treatment with a protease, and human sperm were subsequently added to the zona free eggs. Sperm binding and penetration were assessed under a standard microscope (60× magnification) after placing the sperm-egg complexes onto polylysine-coated glass slides and covered them with 22×22 mm glass coverslips. The ability of the sperm to bind and enter the egg was scored by counting the sperm nuclei lying within the egg cytoplasm. The effect of the test compound was determined by comparing the number of sperm bound to the surface of the eggs and the percentage of penetrated eggs.

HSV-1 = experiment: HSV plaque assay, HSV-1; conditions: Human alphaherpesvirus 1; read-out: IC50 against HSV-1
[4] = test system: murine cytomegalovirus (MCMV) binding to NIH3T3 fibroblasts; experiment: Cytomegalovirus binding assay
Protocol: In a cytomegalovirus binding assay, tritiated murine cytomegalovirus (MCMV) was incubated with NIH3T3 fibroblasts in a 24-well plate fixed (0.4% paraformaldehyde) for 2 hours at 37° C. (rocking) in the presence of media alone or media containing 1-1000 μg/mL suramin. Cells were then washed extensively and lysed with 1% SDS and triton X-100. Lysates were quantified for radioactivity (cpm) in a scintillation counter.

Cc1ccc(C(=O)Nc2ccc(S(=O)(=O)O)c3cc(S(=O)(=O)O)cc(S(=O)(=O)O)c23)cc1NC(=O)c1cccc(NC(=O)Nc2cccc(C(=O)Nc3cc(C(=O)Nc4ccc(S(=O)(=O)O)c5cc(S(=O)(=O)O)cc(S(=O)(=O)O)c45)ccc3C)c2)c1 [Suramin, 8,8′-(carbonylbis(imino-3,1-phenylenecarbonylimino(4-methyl-3,1-phenylene)carbonylimino))bis-1,3,5-naphthalene trisulfonic acid]
Potency, HIV-1 DC [1]: High | IC50 ([1]; Human immunodeficiency virus 1, BAL, Dendritic cell, read-out: IC50 dendritic cell (DC)/T lymphocyte model): 17 µg/mL (≈ 13.1 µM) | EC50 ([1]; DC infected with BaL cultured alone, read-out: EC50, Dendritic Cells (DC)): 56 ± 6 µg/mL (≈ 43.2 µM) | EC50 ([1]; DC infected with BaL with autologous T lymphocytes 1:1, read-out: EC50, DC + T Cells (1:1)): 57.5 ± 5 µg/mL | EC50 ([1]; DC infected with BaL with autologous T lymphocytes 1:10, read-out: EC50, DC + T Cells (1:10)): 17 ± 3 µg/mL | Potency, ZP binding (HZA) [2]: High | Hemizona Index (HZI) ([2]; 1 mM, n=9): 0.08±0.01 | inhibition at 1000 µM ([2]; Homo sapiens, Sperm, 1 mM): 92% | Potency, Oolemma binding/Penetration (HEPT) [3]: High | inhibition of penetration [3]: 100% | inhibition of sperm binding to hamster zona-free oocytes [3]: 75% | sperm penetration/fertilization of zona-free eggs ([3]; n=28 oocytes): completely abolished sperm penetration/fertilization | IC50 (HSV-1): 30 µg/mL (≈ 23.1 µM) | Potency, CMV Binding [4]: Moderate | IC50 ([4]; NIH3T3, read-out: IC50 CMV binding assay): 50 µg/mL (≈ 38.5 µM)
